From patent US7094909B2, “HIV protease inhibitors, compositions containing the same, their pharmaceutical uses and materials for their synthesis” (priority 2001, dated 2006)

Legend:
[1] = system: HIV-1 (HIV-1 RF, HIV-1 NL4-3) in CEM-SS / MT-2 cells; assay: Cytopathic effect (CPE) inhibition assay (XTT/MTT dye reduction); type: cell-based; details: Human immunodeficiency virus 1, NL43; read-out: Ave CPE EC50
Method in brief: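 Readout is XTT reduction (A450, 4 h) after six days of culturing virus-infected (moi 0.025–0.819) or mock-infected CEM-SS/MT-2 cells, 2×10^4 per well, with half-log compound series. Antiviral EC50 and cytotoxic CC50 are relative to uninfected compound-free cells. Therapeutic index is CC50 divided by EC50.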

[2] = molecular target: T1, HIV-1 protease (Q7S mutant form) (Human immunodeficiency virus type 1 group M subtype B, UniProt P04585, Q495S); assay: HIV-1 Protease RET assay; type: biochemical; details: Ave. Ki (nM), RET assay, Q7S enzyme, Morrison tight binding fit
T1 construct: made in house
Method in brief: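 Ki values fitted with the Morrison tight-binding equation from steady-state RET cleavage (ex 340, em 490 nm) of 5 μM RE(EDANS)SQNYPIVQK(DABCYL)R. Buffer pH 4.8 acetate, 1M NaCl, 5 mM DTT, 1 mg/ml BSA, 10% DMSO; 2 nM Q7S mutant dimer, 37 °C, 12 min.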

**Q.** `CC1(C)SCN(C(=O)[C@@H](O)[C@H](Cc2ccccc2)NC(=O)c2cccc3c2CCN3)[C@@H]1C(=O)N[C@H]1CCc2ccccc21` [Example B42, 2,3-Dihydro-1H-indole-4carboxylic acid {(1S,2S)-1-benzyl-2-hydroxy-3-[(R)-4-((S)-indan-1-ylcarbamoyl)-5,5-dimethyl-thiazolidin-3-yl]-3-oxo-propyl}-amide] was tested. Which EC50 [1] did it give?
**A.** Its EC50 is 155 nM.

**Q.** What about the Ki [2] of the same compound?
**A.** The Ki was 0.13 nM.

**Q.** For `Cc1ccc(C(=O)N[C@@H](Cc2ccccc2)[C@H](O)C(=O)N2CSC(C)(C)[C@H]2C(=O)N[C@H]2CCc3ccccc32)c(C)c1O` [Example B43, (R)-3-((2S,3S)-2-Hydroxy-3-{[1-(3-hydroxy-2,4-dimethyl-phenyl)-methanoyl]-amino}-4-phenyl-butanoyl)-5,5-dimethyl-thiazolidine-4-carboxylic acid (S)-indan-1-ylamide], which EC50 [1] is on record?
**A.** Its EC50 is 375 nM.

**Q.** And the Ki [2]?
**A.** The Ki was under 0.1 nM.

**Q.** Which results are given for `CC1(C)SCN(C(=O)[C@@H](O)[C@H](Cc2ccccc2)NC(=O)c2cccc3c2CCN3)[C@@H]1C(=O)NC[C@H]1CCCO1` [Example B44, 2,3-Dihydro-1H-indole-4-carboxylic acid [(1S,2S)-1-benzyl-3-((R)-5,5-dimethyl-4-{[(R)-1-(tetrahydro-furan-2-yl)methyl]-carbamoyl}-thiazolidin-3-yl)-2-hydroxy-3-oxo-propyl]-amide]?
**A.** EC50 [1]: 660 nM; Ki [2]: 4.8 nM

**Q.** For `CCCNC(=O)[C@H]1N(C(=O)[C@@H](O)[C@H](Cc2ccccc2)NC(=O)c2cccc3c2CCN3)CSC1(C)C` [Example B45, 2,3-Dihydro-1H-indole-4-carboxylic acid [(1S,2S)-1-benzyl-3-((R)-5,5-dimethyl-4-propylcarbamoyl-thiazoldin-3-yl)-2-hydroxy-3-oxo-propyl]-amide], which EC50 [1] is on record?
**A.** The EC50 was 572 nM.

**Q.** What about the Ki [2] of the same compound?
**A.** The Ki was 1.1 nM.

**Q.** With `C=CCOC(=O)N[C@@H](Cc1ccccc1)[C@H](O)C(=O)N1CSC(C)(C)[C@H]1C(=O)NCc1ccccc1Cl` [Example B47, {(1S,2S)-1-Benzyl-3-[(R)-4(2-chloro-benzylcarbamoyl)-5,5-dimethyl-thiazolidin-3-yl]-2-hydroxy-3-oxo-propyl}-carbamic acid allyl ester] as the compound, how does the EC50 [1] read?
**A.** Its EC50 is 1480 nM.

**Q.** What about the Ki [2] of the same compound?
**A.** The Ki was 1.9 nM.

**Q.** With `C#CCOC(=O)N[C@@H](Cc1ccccc1)[C@H](O)C(=O)N1CSC(C)(C)[C@H]1C(=O)NCc1ccccc1Cl` [Example B48, {1-Benzyl-3-[4(2-chloro-benzylcarbamoyl)-5,5-dimethyl-thiazolidin-3-yl]-2-hydroxy-3-oxo-propyl}-carbamic acid prop-2-ynyl ester] as the compound, how does the EC50 [1] read?
**A.** Its EC50 is 1480 nM.

**Q.** What about the Ki [2] of the same compound?
**A.** The Ki was 0.83 nM.

**Q.** With `C#CCOC(=O)N[C@@H](Cc1ccccc1)[C@H](O)C(=O)N1CSC(C)(C)[C@H]1C(=O)NCc1c(F)cccc1F` [Example B51, {1-Benzyl-3-[4-(2,6-difluoro-benzylcarbamoyl)-5,5-dimethyl-thiazolidin-3-yl]-2-hydroxy-3-oxo-propyl}-carbamic acid prop-2-ynyl] as the compound, how does the EC50 [1] read?
**A.** The EC50 was over 3200 nM.

**Q.** And the Ki [2]?
**A.** Its Ki is 0.99 nM.

**Q.** What does the source list for `C#CCOC(=O)N[C@@H](Cc1ccccc1)[C@H](O)C(=O)N1CSC(C)(C)[C@H]1C(=O)NCc1ccccc1C(F)(F)F` [Example B54, {1-Benzyl-3-[5,5-dimethyl-4-(2-trifluoromethyl-benzylcarbamoyl)-thiazolidin-3-yl]-2-hydroxy-3-oxo-propyl}-carbamic acid prop-2-ynyl ester]?
**A.** EC50 [1]: 1660 nM; Ki [2]: 2.3 nM

**Q.** With `Cc1ccccc1CNC(=O)[C@H]1N(C(=O)[C@@H](O)[C@H](Cc2ccccc2)NC(=O)NCc2ccccc2)CSC1(C)C` [Example B59, 3-[(2S,3S)-3-(3-Benzyl-ureido)-2-hydroxy-4-phenyl-butyryl]-5,5-dimethyl-thiazolidine-4-carboxylic acid 2-methyl-benzylamide] as the compound, how does the EC50 [1] read?
**A.** The EC50 was 1820 nM.

**Q.** What about the Ki [2] of the same compound?
**A.** The Ki was 2.1 nM.

**Q.** What does the source list for `COc1ccc(CNC(=O)N[C@@H](Cc2ccccc2)[C@H](O)C(=O)N2CSC(C)(C)[C@H]2C(=O)NCc2ccccc2C)cc1` [Example B60, 3-{(S)-2-Hydroxy-3-[3-(4-methoxy-benzyl)-ureido]-4phenyl-butyryl}-5,5-dimethyl-thiazolidine-4-carboxylic acid 2-methyl-benzylamide]?
**A.** EC50 [1]: > 3200 nM; Ki [2]: 1.1 nM

**Q.** How did the EC50 [1] turn out when `C#CCOC(=O)N[C@@H](Cc1ccccc1)[C@H](O)C(=O)N1CSC(C)(C)[C@H]1C(=O)NCc1ccc(OC)cc1` [Example B64, {(1S,2S)-1-Benzyl-2-hydroxy-3-[4-(4-methoxy-benzylcarbamoyl)-5,5-dimethyl-thiazolidin-3-yl]-3-oxo-propyl}-carbamic acid prop-2-ynyl ester] was run?
**A.** Its EC50 is 1600 nM.

**Q.** And the Ki [2]?
**A.** The Ki was 0.53 nM.

**Q.** Which EC50 [1] does the source give for `CCC(C)C(=O)NC(Cc1ccccc1)C(O)C(=O)N1CSC(C)(C)[C@H]1C(=O)NCc1ccccc1C` (stereo partly drawn) [Example B65, 3-[(2S,3S)-2-Hydroxy-3-((S)-2-methyl-butyrylamino)-4-phenyl-butyryl]-5,5-dimethyl-thiazolidine-4-carboxylic acid 2-methyl-benzylamide] here?
**A.** Its EC50 is 1640 nM.

**Q.** What about the Ki [2] of the same compound?
**A.** The Ki was 4.9 nM.

**Q.** For `C#CCOC(=O)N[C@@H](Cc1ccccc1)[C@H](O)C(=O)N1CSC(C)(C)[C@H]1C(=O)NCc1ccncc1` [Example B67, ((1S,2S)-1-Benzyl-3-{5,5-dimethyl-4-[(pyridin-4-ylmethyl)-carbamoyl]-thiazolidin-3-yl}-2-hydroxy-3-oxo-propyl)-carbamic acid prop-2-ynyl ester], which EC50 [1] is on record?
**A.** Its EC50 is over 3200 nM.

**Q.** What about the Ki [2] of the same compound?
**A.** The Ki was 11.4 nM.

**Q.** Which EC50 [1] does the source give for `Cc1ccccc1C(=O)N[C@@H](Cc1ccccc1)[C@H](O)C(=O)N1CSC(C)(C)[C@H]1C(=O)N[C@H]1CCc2ccccc21` [Example B78, (R)-3-{(2S,3S)-2-Hydroxy-4-phenyl-3-[(1-o-tolyl-methanoyl)-amino]-butanoyl}-5,5-dimethyl-thiazolidine-4-carboxylic acid (S)-indan-1-ylamide] here?
**A.** Its EC50 is 557 nM.

**Q.** What about the Ki [2] of the same compound?
**A.** The Ki was 0.18 nM.

**Q.** With `Cc1ccccc1C(=O)N[C@@H](Cc1ccccc1)[C@H](O)C(=O)N1CSC(C)(C)[C@H]1C(=O)NCc1cccs1` [Example B79, (R)-3-{(2S,3S)-2-Hydroxy-4phenyl-3-[(1-o-tolyl-methanoyl)-amino]-butanoyl}-5,5-dimethyl-thiazolidine-4-carboxylic acid (thiophen-2-ylmethyl)-amide] as the compound, how does the EC50 [1] read?
**A.** The EC50 was 530 nM.

**Q.** And the Ki [2]?
**A.** Its Ki is 0.78 nM.

**Q.** For `Cc1c(F)cccc1C(=O)N[C@@H](Cc1ccccc1)[C@H](O)C(=O)N1CSC(C)(C)[C@H]1C(=O)N[C@@H]1C=CCCC1` [Example B81, (R)-3-((2S,3S)-3-{[1-(3-Fluoro-2-methyl-phenyl)-methanoyl]-amino}-2-hydroxy-4-phenyl-butanoyl)-5,5-dimethyl-thiazolidine-4-carboxylic acid (S)-cyclohex-2-enylamide], which EC50 [1] is on record?
**A.** The EC50 was 878 nM.

**Q.** And the Ki [2]?
**A.** The Ki was 0.35 nM.

**Q.** `Cc1c(F)cccc1C(=O)N[C@@H](Cc1ccccc1)[C@H](O)C(=O)N1CSC(C)(C)[C@H]1C(=O)N[C@H]1CCc2ccccc21` [Example B82, (R)-3-((2S,3S)-3-{[1-(3-Fluoro-2-methyl-phenyl)-methanoyl]-amino}-2-hydroxy-4-phenyl-butanoyl)-5,5-dimethyl-thiazolidine-4-carboxylic acid (S)-indan-1-ylamide] was tested. Which EC50 [1] did it give?
**A.** The EC50 was 1290 nM.

**Q.** What about the Ki [2] of the same compound?
**A.** Its Ki is 0.19 nM.

**Q.** How did the EC50 [1] turn out when `Cc1ccccc1CNC(=O)[C@H]1N(C(=O)[C@@H](O)[C@H](Cc2ccccc2)NC(=O)CCCO)CSC1(C)C` [Example B85] was run?
**A.** The EC50 was 363 nM.

**Q.** What about the Ki [2] of the same compound?
**A.** The Ki was 1.3 nM.

**Q.** Which EC50 [1] does the source give for `Cc1c(O)cccc1C(=O)N[C@@H](Cc1ccccc1)[C@H](O)C(=O)N1CC(F)(F)C[C@H]1C(=O)N[C@H]1CCCc2ccccc21` [Example C3, (S)-4,4-Difluoro-1-((2S,3S)-2-hydroxy-3-{[1-(3-hydroxy-2-methyl-phenyl)-methanoyl]-amino}-4-phenyl-butanoyl)-pyrrolidine-2-carboxylic acid (1,2,3,4-tetrahydro-naphthalen-1-yl)-amide] here?
**A.** Its EC50 is 486 nM.

**Q.** What about the Ki [2] of the same compound?
**A.** Its Ki is 0.16 nM.

**Q.** For `CCCNC(=O)[C@@H]1CC(F)(F)CN1C(=O)[C@@H](O)[C@H](Cc1ccccc1)NC(=O)c1cccc(O)c1C` [Example C7, 4,4-Difluoro-1-[2-hydroxy-3-(3-hydroxy-2-methyl-benzoylamino)-4-phenyl-butyryl]-pyrrolidine-2-carboxylic acid propylamide], which EC50 [1] is on record?
**A.** Its EC50 is 347 nM.

**Q.** And the Ki [2]?
**A.** The Ki was 3 nM.

**Q.** With `Cc1c(O)cccc1C(=O)N[C@@H](Cc1ccccc1)[C@H](O)C(=O)N1CC(F)(F)C[C@H]1C(=O)NCc1ccccc1Cl` [Example C10, 4,4-Difluoro-1-[2-hydroxy-3-(3-hydroxy-2-methyl-benzoylamino)-4-phenyl-butyryl]-pyrrolidine-2-carboxylic acid 2-chloro-benzylamide] as the compound, how does the EC50 [1] read?
**A.** The EC50 was 1290 nM.

**Q.** And the Ki [2]?
**A.** Its Ki is 1.5 nM.

**Q.** Which results are given for `Cc1c(O)cccc1C(=O)N[C@@H](Cc1ccccc1)[C@H](O)C(=O)N1CC(F)(F)C[C@H]1C(=O)NCc1ccc2c(c1)OCO2` [Example C11, 4,4-Difluoro-1-[2-hydroxy-3-(3-hydroxy-2-methyl-benzoylamino)-4-phenyl-butyryl]-pyrrolidine-2-carboxylic acid (benzo[1,3]dioxol-5-ylmethyl)-amide]?
**A.** EC50 [1]: 1310 nM; Ki [2]: 2.8 nM

**Q.** For `COc1cccc(CNC(=O)[C@@H]2CC(F)(F)CN2C(=O)[C@@H](O)[C@H](Cc2ccccc2)NC(=O)c2cccc(O)c2C)c1` [Example C12, (S)-4,4-Difluoro-1-[(2S,3S)-2-hydroxy-3-(3-hydroxy-2-methyl-benzoylamino)-4-phenyl-butyryl]-pyrrolidine-2-carboxylic acid 3-methoxy-benzylamide], which EC50 [1] is on record?
**A.** Its EC50 is 1770 nM.

**Q.** What about the Ki [2] of the same compound?
**A.** Its Ki is 2.7 nM.
